Laboratory results as given in patent US20250248979A1, “NOVEL GPX4 INHIBITORS AND USES THEREOF” (THE TRUSTEES OF COLUMBIA UNIVERSITY IN THE CITY OF NEW YORK, priority 2022, published 2025).
≈ marks a conversion by molar mass, not a printed value. Entries after “also recorded” stand apart in the source; their conditions may differ. Like-named read-outs stand apart in the source and are kept apart here.

Key:
[1] = test system: lipid peroxidation in HT-1080 cells; experiment: C11-BODIPY lipid peroxidation flow cytometry assay; format: cell-based, human
GPX4 = target: T1, GPX4 (Homo sapiens, UniProt P36969); experiment: GPX4 activity assay in cell lysates (NADPH-coupled); format: biochemical; design: endogenous in cells; host or cells: A-673 cell lysate; conditions: for IC50: mean±SD, n=3 (FIG. 84E), read-out: IC50 in the in vitro GPX4 activity assay
T1 sequence (P36969 1-170 isoform P36969-2): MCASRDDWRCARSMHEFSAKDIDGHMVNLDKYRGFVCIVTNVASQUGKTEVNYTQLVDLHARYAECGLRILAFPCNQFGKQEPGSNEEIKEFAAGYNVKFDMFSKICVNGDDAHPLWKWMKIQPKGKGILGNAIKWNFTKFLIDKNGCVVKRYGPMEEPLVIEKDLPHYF
In short: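 Native GPX4 in lysates of A-673 cells grown with 20 nM sodium selenite; lysate preincubated with compound 45 min at 37 °C in pH 8.0 buffer with 3 mM GSH, 0.5 mM NADPH and glutathione reductase. Reaction started with phosphatidylcholine hydroperoxide; NADPH consumption followed at 340 nm over 25 min; triplicates.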

Huh7 cells = experiment: Cellular dose response assay, Huh7; format: cell-based, human
Description: HT-1080 (human [Homo sapiens] […] fibrosarcoma), A-673 (human [Homo sapiens] […] Ewing's sarcoma), and SK-HEP-1 (human [Homo sapiens] […] hepatic adenocarcinoma), cells were obtained from ATCC. Huh7 (human [Homo sapiens] […] hepatocellular carcinoma), HLF (human [Homo sapiens] […] hepatocellular carcinoma), HepG2 (human [Homo sapiens] […] hepatocellular carcinoma), cells were obtained from the Cancer Cell Bank at Columbia University Irving Medical Center. HT-1080, A-673, Huh-7, and HLF cells were grown in Dulbecco's Modified Eagle Medium (DMEM) supplemented with 10% heat inactivated fetal bovine serum (HI-FBS), 1% non-essential amino acids, and 1% penicillin streptomycin. HepG2 and SK-HEP-1 cells were grown in Eagle's Minimum Essential Medium (EMEM) supplemented with 10% HI-FBS, and 1% penicillin-streptomycin. All cells were cultured at 37° C. and 5% CO2.
HT-1080, HepG2, Huh7, HLF, and SK-HEP-1 cells were seeded into opaque white 384-well plates at 1500 cells per well then incubated at 37° C. with 5% CO2 overnight. The next day, compounds of interest were dissolved in DMSO and 12-point 2-fold dilution series were prepared with and without Fer-1. Cells were treated in triplicate (final DMSO concentration of 0.4% in all wells, including DMSO-only control wells) and incubated for a further 48 hours at 37° C. and 5% CO2. Cell viability was evaluated using CellTiter-Glo (Promega G7573) and luminescence was recorded on a Victor 5 plate reader. Data were analyzed in GraphPad Prism 9 and error bars represent standard deviation values for three technical replicates in a representative experiment.

[2] = Kinetic aqueous solubility
in vitro [3] = format: in vitro ADME, human; conditions: human, microsomes
Experimental: (§1) […]. The incubation timepoints measured were 0, 5, 10, 15, 30, and 45 minutes. All samples were prepared in duplicate and analyzed by LC-MS/MS.

in vitro [4] = format: in vitro ADME, mouse; conditions: mouse, microsomes
Experimental: as §1

[5] = test system: DTP cells derived from PC9; experiment: Drug-tolerant persister cell model, DTP cells; conditions: for % Viability Persister: 48 hours; for viability at 10 µM: Homo sapiens
SU-DHL-6 = experiment: Cytotoxicity in DLBCL cells, SU-DHL-6; format: cell-based, human; conditions: for IC50: SU-DHL-6
SU-DHL-2 = experiment: Cytotoxicity in DLBCL cells, SU-DHL-2; format: cell-based, human; conditions: for IC50: SU-DHL-2
[6] = HT-1080 cells, with and without fer-1
[7] = 200 μM, generation 1, mean ± s.d., n = 3
[8] = compounds alone, Table 4, read-out: IC50 (uM) Huh7^a
[9] = with fer-1, Table 4, read-out: IC50 (uM) Huh7^b
[10] = Fer-1 1.0 μM, read-out: IC50 (μM) with Fer-1

SMILES	GPX4% inhibition at 200 (μM) (GPX4; [7]) [%]	IC50 (Huh7 cells; [8]) [µM]	IC50 (Huh7 cells; [9]) [µM]	GPX4% inhibition at 20 (μM) (GPX4; generation 1) [%]	GPX4% inhibition at 50 (μM) (GPX4; 50 μM, generation 1) [%]	GPX4% inhibition at 100 (μM) (GPX4; generation 1) [%]	Solubility ([2]; aqueous solubility, Table 9) [µM]	Microsome Stability t1/2 (min) human (in vitro [3]) [min]	Microsome Stability t1/2 (min) mouse (in vitro [4]) [min]	lipid peroxidation (C11-BODIPY), result in words [1, 6]	GPX4 inhibition (GPX4; 200 μM)	selectivity for DTPs vs PC9 parental cells, result in words [5]	% Viability Persister ([5]; dose 1.0 μM) [%]	% Viability Persister ([5]; dose 10.0 μM) [%]	IC50 (GPX4) [µM]	other results
COc1cccc2[nH]c(C(=O)n3ccnc3)cc12 [LOC1886, reference compound]	–	–	–	–	–	–	–	–	–	induces lipid peroxidation in cells	–	–	–	–	–	inhibition at 200 µM (GPX4; 200 μM, mean ± s.d., n = 3, read-out: GPX4% inhibition at 200): 31.9 ± 6%
CC(C)(COC(=O)CCl)NC(=O)c1cc2cc([N+](=O)[O-])ccc2[nH]1 [QW-148]	87.3 ± 34.6	15.8	55	66.7 ± 1.4	79.2 ± 5.8	62.7 ± 10.9	–	–	–	–	–	–	–	–	–	–
Cn1nc(C(=O)NC(C)(C)COC(=O)CCl)c2ccc(Br)cc21 [QW-314]	–	–	–	–	–	–	–	–	–	–	complete inhibition	selective lethality in DTPs vs PC9 parental cells; also recorded: preferential induction of significantly more cell death in the DTP cells compared to the parental cells	–	–	5.8	solubility at 1 h ([2]; phosphate buffered saline, pH 7.4, aqueous buffer, kinetic from dmso stock): 61 µM (≈ 24.6 µg/mL); half-life at 1 μM (in vitro [3]; pH 7.4): 6 min; lipid peroxidation (C11-BODIPY), result in words [1]: increased lipid peroxidation that is rescuable by ferrostatin-1; viability at 10 µM ([5]; 48 h, read-out: % Viability Persister): 22%; viability at 10 µM ([5]; read-out: % Viability Persister + 2 μM Fer-1): 73%; half-life at 1 μM (in vitro [4]; pH 7.4): 5.3 min; GPX4 inhibition (GPX4; 20 µM): complete inhibition in the assay even at 20 μM; inhibition at 20 µM (GPX4; read-out: GPX4% inhibition at 20 (μM)): 108 ± 5.3%; inhibition at 200 µM (GPX4; read-out: GPX4% inhibition at 200 (μM)): 93.1 ± 6%; times less potent than RSL3 in cells (Huh7 cells): approximately 10 times; GI50 (Huh7 cells; Homo sapiens, Huh-7): ~1 µM; IC50 (Huh7 cells; Homo sapiens, Huh-7, read-out: IC50 (uM) Huh7^a): 1.8 µM; IC50 (Huh7 cells; Homo sapiens, Huh-7, read-out: IC50 (uM) Huh7^b): 92.9 µM
COc1ccc(-c2ccc3c(C(=O)NC(C)(C)COC(=O)CCl)nn(C)c3c2)cc1Cl [QW-446]	–	–	–	–	–	–	>1000	1.6	1.2	induced fer-1 rescuable increases in lipid peroxidation	–	show DTP selectivity relative to PC9 parental cells; also recorded: selective and similar or stronger cytotoxicity to DTP cells	–	26.50	0.49	aqueous solubility [2]: up to 1000 μM; Solubility ([2]; 1% DMSO, Phosphate Buffered Saline pH 7.4, 1 hour, ambient, UV/Vis absorbance): 22 µM (≈ 10.2 µg/mL); % Viability Persister ([5]; dose 0.5 μM): 127.75%; % Viability Persister + 2 μM Fer-1 ([5]; dose 0.5 μM): 110.75%; % Viability Persister + 2 μM Fer-1 ([5]; dose 10.0 μM): 107.50%; % Viability Persister ([5]; dose 20.0 μM): 4.25%; % Viability Persister + 2 μM Fer-1 ([5]; dose 20.0 μM): 27.00%; ferroptosis induction / potency in SU-DHL-6 cells, result in words (SU-DHL-6): a potency that is similar to RSL3; GPX4 inhibitory activity, result in words (GPX4): greater GPX4 inhibitory activity than QW-314 at 5 μM; GPX4% inhibition at 2.5 μM (GPX4): 79.1 ± 4.4%; GPX4% inhibition at 5 μM (GPX4; 5 μM): 88.1 ± 2.7%; GPX4 inhibition rate (GPX4; concentration not given): 90%
CC(C)(COC(=O)CCl)NC(=O)c1nn(Cc2cc(Cl)cc(Cl)c2)c2cc(-c3ccc(N4CCOCC4)c(Cl)c3)ccc12 [QW-852]	–	–	–	–	–	–	–	–	–	increase in lipid-ROS which can be attenuated by ferrostatin-1	–	greater potency and selectivity to DTP cells	48.00	3.25	–	Selectivity^a (fold) (SU-DHL-2): >1000 fold; IC50 (SU-DHL-2; 24 h, read-out: IC50): 0.002 µM; IC50 (SU-DHL-2; [10]): 4.95 µM; % Viability Persister + 2 μM Fer-1 ([5]; dose 1.0 μM): 93.75%; Selectivity^a (fold) (SU-DHL-6): 269 fold; IC50 (SU-DHL-6; 24 h, read-out: IC50): 0.019 µM; IC50 (SU-DHL-6; [10]): 5110 µM; GPX4 inhibitory activity, result in words (GPX4): greater GPX4 inhibitory activity than QW-446 at 2.5 μM concentration; GPX4% inhibition at 2.5 μM (GPX4; 4th generation): 88.2 ± 13.3%
COC(=O)c1ccc([C@@H]2c3[nH]c4ccccc4c3C[C@@H](C(=O)OC)N2C(=O)CCl)cc1 [RSL3, reference compound]	–	0.6	34.4	–	–	–	26 (≈ 11.5 µg/mL)	14	2.4	–	–	–	6.00	–	7.6	Selectivity^a (fold) (SU-DHL-2): 8 fold; IC50 (SU-DHL-2; 24 h, read-out: IC50): 0.18 µM; IC50 (SU-DHL-2; [10]): 1.5 µM; Selectivity^a (fold) (SU-DHL-6): 71 fold; IC50 (SU-DHL-6; 24 h, read-out: IC50): 0.019 µM; IC50 (SU-DHL-6; [10]): 1.35 µM; GPX4% inhibition at 200 (μM) (GPX4; 200 μM, mean ± s.d., n = 3): 112.5 ± 6.5%; IC50 (Huh7 cells; compounds alone, Table 7, read-out: IC50 (uM) Huh7^a): 0.6 µM; IC50 (Huh7 cells; with fer-1, Table 7, read-out: IC50 (uM) Huh7^b): 34.4 µM

The next lines start with results.

GPX4% inhibition at 200 (μM) (GPX4; [7]) [%]	IC50 (Huh7 cells; [8]) [µM]	IC50 (Huh7 cells; [9]) [µM]	GPX4% inhibition at 20 (μM) (GPX4; generation 1) [%]	GPX4% inhibition at 50 (μM) (GPX4; 50 μM, generation 1) [%]	GPX4% inhibition at 100 (μM) (GPX4; generation 1) [%]	Solubility ([2]; aqueous solubility, Table 9) [µM]	Microsome Stability t1/2 (min) human (in vitro [3]) [min]	Microsome Stability t1/2 (min) mouse (in vitro [4]) [min]	SMILES	lipid peroxidation (C11-BODIPY), result in words [1, 6]	GPX4 inhibition (GPX4; 200 μM)	selectivity for DTPs vs PC9 parental cells, result in words [5]	% Viability Persister ([5]; dose 1.0 μM) [%]	% Viability Persister ([5]; dose 10.0 μM) [%]	IC50 (GPX4) [µM]	other results
−3.3 ± 45.3	98.7	113	–	–	–	–	–	–	CC(C)(COC(=O)CCl)NC(=O)c1cc2ccccc2[nH]1 [QW-147]	–	complete loss in potency of inhibitory activity	–	–	–	–	–
150.4 ± 20.3	59.6	110	27.9 ± 5.5	56.0 ± 6.2	70.5 ± 9.2	88 (≈ 29.8 µg/mL)	1.5	0.9	COc1ccc2cc(C(=O)NC(C)(C)COC(=O)CCl)[nH]c2c1 [QW-152]	–	complete inhibition	–	–	–	–	GPX4 inhibition (GPX4; 50 μM): approximately 60%
170.3 ± 33.5	17.8	55.4	61.2 ± 0.5	98.6 ± 4.1	95.5 ± 6.2	23 (≈ 8.92 µg/mL)	>1000	>1000	CC(C)(COC(=O)CCl)NC(=O)c1cc2ccc(Br)cc2[nH]1 [QW-156]	induced fer-1 rescuable increases in lipid peroxidation	complete inhibition	no selectivity for DTP cells over PC9 cells at most concentrations tested	122.00	73.25	–	% Viability Persister ([5]; dose 25.0 μM): 24.50%; % Viability Persister ([5]; dose 50.0 μM): 2.50%; GPX4 inhibition (GPX4; 50 μM): complete GPX4 inhibition
